Results as given in patent US11730712B2, “Functionalized long-chain hydrocarbon mono- and di-carboxylic acids and derivatives thereof, and their use for the prevention or treatment of disease” (ESPERVITA THERAPEUTICS, INC., priority 2021, dated 2023).

Tested on: Acyl-CoA synthetase activity in rat liver microsomes
Assay: Synthesis of CoA derivatives in rat liver microsomes (LCMS)
Details: 1 mM substrate, 30 min sample vs 0 min
Procedure: Prior to the experiment a 1 mM working stock was created in primary hepatocyte media which was used to create the final dilution series of 0 (vehicle), 0.3, 1, 3, 10, and 30 μM. The final concentration of DMSO in all samples was <1%.
For initial validation of ACS activity using palmitate, 14C-palmitate was added (0.5 μCi/ml). Each sample was equilibrated at 37° C. while shaking for 10 min before the reaction was initiated by the addition of 0.04 mg of rat microsomal preparation (ThermoFisher Scientific. Cat #RTM-CPL, Lot #RT060-A) followed by incubation for 1, 3, 10, or 30 mins. Time 0 sample with no added microsomes was used as a control. The reaction was stopped by immediately placing the reaction tube on ice followed by the rapid addition of the reaction mixture to 2.25 ml ice-cold isopropanol/heptane/2M-sulfuric acid (40:10:1, vol/vol) in a 5 ml glass vial. […] For studies that involved measurement of 14C Palmitoyl-CoA formation, 200 μl of the lower aqueous phase was added to the 5 ml of scintillation fluid and the number of DPMs were determined by liquid scintillation counting for 5 minutes using a LS6500 Liquid Scintillation Counter (Beckman Coulter). […]
The reaction products were ionized by electrospray ion source (ESI) in positive mode. […] The resulting mass spectra were analyzed using the Xcalibur 2.1 Qualitative software package. […]

CC(C)(CCCc1ccccc1CCCC(C)(C)C(=O)SCCNC(=O)CCNC(=O)[C@H](O)C(C)(C)COP(=O)(O)OP(=O)(O)OC[C@H]1O[C@@H](n2cnc3c(N)ncnc32)[C@H](O)[C@@H]1OP(=O)(O)O)C(=O)O [Compound I-61-CoA, 5-[2-(4-Carboxy-4-methylpentyl)-phenyl]-2,2-dimethylpentanoic acid Coenzyme A ester]
formation of the CoA derivative, detection by LCMS: could not be confirmed using fragmentation analysis
